The assay concerns the target T1, rat intestinal α-glucosidase.
T1 construct: gene Si; crude saline extract of commercial rat intestinal acetone powder (Sigma-Aldrich); mixed brush-border alpha-glucosidases, not purified
The experiment in a line: p-nitrophenol release from pNPG, […] nm. It is filed as biochemical. The following applies: 5 mM p-nitrophenyl glucopyranoside (maltose or sucrose also named in method; substrate of the table value not told), 0.1 M phosphate pH 6.9, 37°C, 30 min, crude enzyme.

In brackets after ≈: the same amount, converted by molar mass.

As for `C[C@H]1O[C@H](O[C@H]2[C@H](O)[C@@H](O)[C@@H](O[C@H]3[C@H](O)[C@@H](O)C(O)O[C@@H]3CO)O[C@@H]2CO)[C@H](O)[C@@H](O)[C@@H]1N[C@H]1C=C(CO)[C@@H](O)[C@H](O)[C@H]1O` (stereo partly shown) [acarbose], the “IC50 (mg/mL) / α-Glucosidase” value is reported as 1.63 ± 0.10 mg/mL (≈ 2520 µM).
